The text below walks through data of US11634688B2, “Methods and compositions for inducing hematopoietic cell differentiation” (FATE THERAPEUTICS, INC., priority 2015, dated 2023).

The test system of assay [1] is hiPSCs. The assay can be described thus: generation of CD34+ HE from hiPSC monolayer differentiation, flow cytometry at about D10. The class given is cell-based, human. As to the method: The above iHSC platform was further optimized for hematopoietic lineage cells differentiation. To initiate differentiation towards the hematopoietic lineage, hiPSCs were seeded as a monolayer on Day (D) 0 in the maintenance medium and allowed to adhere and expand for about 24 hours. At this point, the maintenance medium was removed and replaced with base medium without maintenance factors at D1. Hematopoietic differentiation was initiated at around D2 by switching the culture medium to iCD34-A (see FIG. 12). […] The monolayers were maintained until around D5-D6 at which point they were dissociated into single cells and seeded as a low density monolayer in iCD34-C medium until differentiation around D10. Low oxygen tension (2-10% O2) was maintained from the onset of hematopoietic differentiation around D2 up until around D10 of differentiation.
During the culture process, the directed differentiation towards the hematopoietic lineage was monitored by the dissociation of the monolayers into single cells and analysis for the surface marker expression of CD34, and optionally, CD43, CD45, CXCR4 and CD73 (FIG. 15A). At around D8 of differentiation, the appearance of a cell population representing HE was observed by the cell surface expression signature CD34+. CD43−CXCR4−CD73− was also observed in the CD34+ cells. The CD34+ population was maintained until around D10 (FIG. 15A). At D10, which time point can be shortened to about D9 or extended until about D12, the cells were dissociated into single cells and the CD34+ HE population was sorted by FACS using a BD FACS Aria for further analysis and functional assessment. […]
To optimize the efficient generation of HE from hiPSCs after around 10 days of differentiation several parameters were examined. The optimal plating density of the monolayers at DO of differentiation was assessed by plating increasing amounts of hiPSCs from 7.5×10^4/well to 1.5×10^5/well on matrigel™-coated 6 well culture dishes and then analyzing the generation of the CD34+ HE population at about D10. […]
The effect of the concentration of BMP4 modulation during the initial stages of hematopoietic differentiation on the generation of HE was assessed by treating the cultures with increasing concentrations of BMP4 ranging from 0 ng/ml to 30 ng/ml from about D2 to about D6 of differentiation. The generation of HE at D10 was assessed by the detection of the CD34+ HE population.
The Wnt pathway activator CHIR99021 is responsible for the induction of the definitive hematopoetic program from hiPSCs. The effect of the modulation of CHIR during the induction phase of the hematopoietic differentiation protocol was assessed by treating the cultures with increasing concentrations of CHIR from about D3.75 to about D6. […]
(A flow cytometer gives signals particle by particle.)

For assay [2], the system named is Day 10 CD34+ iHE sorted cells. In words: stromal-free NK cell differentiation on plate-bound DLL4, hiPSC-derived iHE. The settings on record: plate bound DLL4 vs control protein; CD45+ gating. The class given is cell-based, human.
The subject of assay [3] is umbilical cord blood CD34+ cells. In words: stromal-free NK cell differentiation on plate-bound DLL4, umbilical cord blood CD34+ cells. The settings on record: plate-bound DLL4 vs stromal-based and stromal-free control cultures; 10-15 days. As to the method: Specific to NK cells, enriched umbilical cord blood CD34+ cells were plated in iNK-A serum-free differentiation media containing SCF, Flt3L, IL3, IL15 and IL7 in culture plates containing DLL4 protein or control protein. After 5 days the iNK-B medium was maintained to complete NK cell differentiation. After approximately 10-15 days of culture, the culture was assessed for the generation of NK cell progenitors and the absence of myeloid cells. CD56, CD7 and CD161 are the first cell surface markers to be expressed during NK cell development. CD11b and CD14 are cell surface markers expressed on myeloid cell subsets. FIG. 29 depicts stromal-free differentiation of umbilical cord blood CD34+ cells towards NK cells. […] Early NK lineage markers identify the presence of proNK cells as defined by CD56, CD7 and CD161 and the absence of myeloid markers CD11b and CD14.

Where [4] appears, read: CHIR from about D3.75 to about D6.

As to `Cc1c[nH]c(-c2cnc(NCCNc3ccc(C#N)cn3)nc2-c2ccc(Cl)cc2Cl)n1` [CHIR99021, reference compound], in assay [1] (setting [4]), the “effect of increasing CHIR99021 concentration on percentage of HE subpopulation” value is “decreases the percentage of the HE subpopulation” and the “effect of increasing CHIR99021 concentration on total percentage of CD34+ cells” value is listed as “increases the total percentage of CD34+ cells”.
Consider “DLL4: Notch activator, plate-bound DLL4 protein”, for which the “differentiation of NK cell progenitors and myeloid cells” value in assay [2] is “supports the differentiation of CD56+CD7+CD161+ NK cell progenitors but not CD11b+myeloid cells”. Moreover, the “differentiation of CD56+CD7+CD161+ NK cell progenitors” value in assay [3] was “supports a more rapid and efficient differentiation of CD56+CD7+CD161+ NK cell progenitors”.
As to IGF1: insulin-like growth factor 1, in assay [1] (IGF1 and EPO added together at Day 8), the “effect of addition of IGF1 and EPO on percentage of HE at around D10” value is listed as “decreases the percentage of HE”.

B1: BMP4: bone morphogenetic protein, BMP pathway activator (protein, UniProt P12644 293-408, looked up)
Bone morphogenetic protein 4: SPKHHSQRARKKNKNCRRHSLYVDFSDVGWNDWIVAPPGYQAFYCHGDCPFPLADHLNSTNHAIVQTLVNSVNSSIPKACCVPTELSAISMLYLDEYDKVVLKNYQEMVVEGCGCR
For B1, the “optimal concentration of BMP4 for HE population at D10” value in assay [1] (BMP4 0 ng/ml to 30 ng/ml from about D2 to about D6, CD34+ HE at D10) is given as “about 3 ng/mL”.
